In publication PMC8955938, “c-Myc Protein Level Affected by Unsymmetrical Bisacridines Influences Apoptosis and Senescence Induced in HCT116 Colorectal and H460 Lung Cancer Cells” (International Journal of Molecular Sciences, 2022):

Tests used:
Assay type in all cases: cell-based, human
H460 cells [1] = test: Nuclear morphology (Hoechst 33342), H460; conditions: H460, IC90 doses, 72 and 120 h similar level (time not specified)
Description: Nuclear morphology was examined under a fluorescence microscope (OLYMPUS BX60, […]) after staining with Hoechst 33342. Briefly, after drug treatment, HCT116, H460, CCD 841 CoN and MRC-5 cells were spun onto microscopic slides, fixed with methanol:acetic acid (3:1) for 15 min and stained with Hoechst 33342 (1 mg/mL) for 15 min. Cells were regarded as apoptotic based on the presence of condensed, fragmented chromatin. Enlarged cells containing multiple nuclei were considered as typical of mitotic catastrophe.

[2] = system: KRAS gene expression in H460 cells; test: RT-PCR KRAS expression in H460; conditions: H460, IC90 doses, with time of incubation up to 120 h
Description: (§1) HCT116, H460, CCD 841 CoN and MRC-5 cells after treatment with UAs were collected, washed twice with ice-cold PBS and resuspended in […] of PBS. mRNA was isolated using High Pure RNA Isolation Kit according to the manufacturer’s instructions (Roche, Basel, Switzerland). Briefly, cells were lysed in lysis-binding buffer and transferred to a filter tube. Contaminating DNA was removed by 15 min incubation of the filter tube with DNase I solution. The filter tube was washed once with buffer I and twice with buffer II, and after centrifugation, total RNA was eluted using the elution buffer. RNA concentration was determined by NanoDrop One (Thermo Scientific); 1 µg of RNA was reverse transcribed using Transcriptor First Strand cDNA Synthesis Kit according to the manufacturer’s instructions (Roche) in 20 µL of reaction containing 1 µg of RNA, […] anchored-oligo(dT)18Primer, 8 mM MgCl2, 20 U of Protector RNase Inhibitor, deoxynucleotide mix (1 mM each) and 22 U of Transcriptor Reverse Transcriptase. The reverse transcription reaction was carried out for 30 min at 55 °C and stopped by heating to 85 °C for 5 min and placing on ice. The cDNA solution was stored at −20 °C until use. Real-time polymerase chain reaction (PCR) was performed on 2 µL of cDNA using 0.2 µM forward and reverse primers on LightCycler® 480 using LightCycler® 480 SYBR Green I Master according to manufacturer’s instructions (Roche). Primers were designed using BLAST website. Their efficiency was checked, and they were ordered from Genomed (Warsaw, Poland). The sequences of primers were as follows: MYC set 1 forward primer, […]; MYC set 1 reverse primer, […]; MYC set 2 forward primer, […]; MYC set 2 reverse primer, […]; KRAS forward primer, […]; KRAS reverse primer, […]; reference gene, GAPDH forward primer ACCCACTCCTCCACCTTTG; and GAPDH reverse primer, CTCTTGTGCTCTTGCTGGG. Cycling conditions were as follows: 1 cycle for 7 min at 95 °C (preincubation), 45 cycles of amplification: 10 s at 95 °C (denaturation), 20 s at 62 °C (annealing), 30 s at 72 °C (extension), 1 cycle for obtaining melting curve and 1 cycle for 10 s at 40 °C (cooling). The results were standardized to the reference gene GADPH. The relative expression level of MYC and KRAS was quantified using comparative method […]. The results were obtained from three independent experiments, each of which was analyzed at least twice.

H460 cells [3] = test: MTT cell growth inhibition assay, H460
Description: (§2) To assess cell viability, the MTT assay was used. HCT116, H460, CCD 841 CoN and MRC-5 cells (20,000/well and 50,000/well for cancer and normal cells, respectively) were seeded in 24-well plates, and the following UAs were added at concentrations up to 10 μM: C-2028, C-2041, C-2045 and C-2053. Stock solutions (10 mM) were prepared in sterile water, as well as dilutions, also in water. After 72 h, 3-(4, 5-dimethylthiazol-2-yl)-2,5-diphenyltetrazolium bromide (MTT; 800 μg/well) was added for 3 h, then the formazan crystals were dissolved in DMSO, and absorbance was read at 540 nm. Each point was conducted at least 4 times, and data are expressed relative to controls. The concentration of the drug required to inhibit cells growth by 50 (IC50), 80 (IC80) and 90% (IC90) compared to untreated control cells was determined from the curves plotting survival as a function of dose.

H460 cells [4] = test: Annexin V/PI dual staining, H460; conditions: H460, IC90 doses; for necrotic cells (stained only with PI): during the incubation time
Description: Annexin V–FITC binding was performed with an Annexin-V Fluos Staining kit (BD Biosciences, San Jose, CA, USA) according to manufacturer’s protocol. Briefly, after drug treatment, HCT116 and H460 cells (1 × 10^6) were trypsinized, washed twice with ice-cold PBS, pelleted and resuspended in 100 µL of binding buffer containing Annexin-V–FITC and PI. Cells were incubated for 15 min at room temperature in the dark, then diluted with 400 µL of binding buffer and analyzed by flow cytometry with FACS Accuri C6 (BD, San Jose, CA, USA). Cells with low FITC and PI fluorescence were considered viable. Cells that presented high FITC fluorescence but low PI fluorescence were regarded as early apoptotic. Late apoptotic cells presented high FITC and PI fluorescence. Necrotic cells had low FITC fluorescence and high PI fluorescence.

[5] = system: MYC gene expression in H460 cells; test: RT-PCR MYC expression in H460; conditions: H460, IC90 doses; for relative mRNA level of MYC gene: with time of incubation up to 120 h
Description: as §1

HCT116 cells = test: MTT cell growth inhibition assay, HCT116; conditions: HCT116, 72 h
Description: as §2

[6] = system: active caspase-3 in H460 cells; test: Active caspase-3 flow cytometry, H460; conditions: H460, IC90 doses, 120 h
Description: Caspase-3 activity was determined using Alexa Fluor 647-conjugated anti-active caspase-3 antibody (BD Biosciences, San Diego, CA, USA) according to the manufacturer’s instructions. Briefly, HCT116 and H460 cells (1 × 10^6) were trypsinized, pelleted, washed twice with ice-cold PBS and fixed in Fixation Buffer for 20 min on ice. After fixation, cells were rinsed twice with Perm Wash Buffer, stained with Alexa Fluor 647-conjugated anti-active caspase-3 antibody for 30 min, rinsed with Perm Wash Buffer and analyzed by flow cytometry with FACS Accuri C6 (BD, San Jose, CA, USA).

H460 cells [7] = test: Colony-forming assay, H460; conditions: for number of colonies: H460, 120 h treatment at IC90 doses, about 250 cells cultured two weeks in fresh medium; for return to proliferation (colony formation): H460, IC90 doses, already after 24 h of incubation
Description: The ability of cells to return to proliferation after UAs treatment was measured by a colony-forming assay. After drug treatment, 250 HCT116 and H460 cells were harvested and seeded in a new 6-well plate containing fresh medium without the drug and incubated for two weeks. Untreated cells were used as controls. After two weeks, colonies were fixed with 80% ethanol, stained with crystal violet, counted, and photos were taken.

| IC50 (H460 cells [3]; H460, 72 h) [nM] | IC90 (H460 cells [3]; H460, 72 h) [nM] | IC50 (H460 cells [3]; Homo sapiens, NCI-H460, 72 h) [nM] | IC90 (H460 cells [3]; Homo sapiens, NCI-H460, 72 h) [nM] | IC50 (HCT116 cells) [nM] | IC90 (HCT116 cells) [nM] | IC50 (HCT116 cells; Homo sapiens, HCT-116, 72 h) [nM] | IC90 (HCT116 cells; Homo sapiens, HCT-116, 72 h) [nM] | Structure (SMILES) | apoptotic cells (nuclear morphology) (H460 cells [1]) [%] | relative amount of KRAS mRNA [2] | annexin V positive cells (early and late apoptotic) (H460 cells [4]; 120 h) [%] | necrotic cells (stained only with PI) (H460 cells [4]) [%] | relative mRNA level of MYC gene [5] | cells with active caspase-3 [6] [%] | number of colonies (H460 cells [7]) | necrotic cells (A−PI+) (H460 cells [4]; 120 h) [%] | drop of MYC mRNA level [5] [%] | return to proliferation (colony formation) (H460 cells [7]) |
| --- | --- | --- | --- | --- | --- | --- | --- | --- | --- | --- | --- | --- | --- | --- | --- | --- | --- | --- |
| 16 ± 2 | 46 ± 4 | ≤ 16 | ≤ 50 | 10 ± 1 | 44 ± 5 | ≤ 16 | ≤ 50 | CN(CCCNc1c2ccccc2nc2cccc([N+](=O)[O-])c12)CCCNc1ccc2ncn3c4ccccc4c(=O)c1c23 [Compound C-2028] | 24.8 | remained almost at the same level | 48.7 | ≤ 10 | stayed at the similar level | 44.9 | eight | – | – | – |
| 15 ± 2 | 46 ± 5 | ≤ 16 | ≤ 50 | 8 ± 2 | 49 ± 5 | ≤ 16 | ≤ 50 | O=c1c2ccccc2n2cnc3ccc(NCCCN4CCN(CCCNc5c6ccccc6nc6cccc([N+](=O)[O-])c56)CC4)c1c32 [Compound C-2041] | – | remained almost at the same level | 35.9 | ≤ 10 | 1.65 | 35.5 | 77 colonies | – | – | – |
| – | – | 95 ± 38 | 399 ± 52 | – | – | 59 ± 8 | 455 ± 26 | Cc1ccc([N+](=O)[O-])c2c(NCCCN(C)CCCNc3ccc4ncn5c6ccc(O)cc6c(=O)c3c45)c3ccccc3nc12 [Compound C-2045] | 41.8 | around 1.5 | 49.4 | – | around 0.55 | 51.6 | – | ~12 | 50 | completely blocked their return to proliferation |
| – | – | 25 ± 6 | 184 ± 22 | – | – | 48 ± 14 | 195 ± 75 | Cc1ccc([N+](=O)[O-])c2c(NCCCN(C)CCCNc3ccc4ncn5c6ccccc6c(=O)c3c45)c3ccccc3nc12 [Compound C-2053] | 41.6 | ~1.7 | 53.1 | ≤ 10 | around 0.55 | 54.1 | – | – | 50 | completely blocked their return to proliferation |
